Earlier results, collected in patent US20220228277A1, “COMPACT GENERATOR FOR GENERATING STERILIZING MATERIALS” (priority 2021, published 2022).

How the values were obtained:
[1] = in a year
[2] = 20° C. water; also printed as 29.9 ppm
[3] = environment dependent

| decay of sealed H2O2-H2O solution [1] [%] | Compound | solubility of O3 in water [2] [µg/mL] | natural life of O3 (turns into O2) [3] [min] |
| --- | --- | --- | --- |
| 10 | OO [H2O2, hydrogen peroxide] |  |  |
|  | O=[O+][O-] [O3, ozone] | 29.9 | 20 to 30 |
